The values below come from patent publication US4870160A, “Polypeptides with laminin activity” (Regents of the University of Minnesota, priority 1987, dated 1989).

Common to all, as to assay type: cell-based
The subject of one assay is Rat C6 glioma cell line. Put plainly: Cell adhesion assay for C6 cell line (Example 6C). The conditions noted are these: FIG. 12. How it is done:
(§1) Adhesion was measured using 96 well microtiter plates adsorbed with three different amounts (0.1; 1.0; and 10.0 μg/per well) of peptides 9, 11-18, BSA and laminin. Cultures of cells which were 60-80% confluent were metabolically labeled for 24 hours with the addition of 3 mCi/ml of ^3 H-amino acid mixture. On the day of the assay, the cells were harvested by trypsinization, the trypsin was inhibited by the addition of serum, and the cells were washed free of this mixture and resuspended in DMEM buffered with HEPES at pH 7.2. The adhesion medium also contained 2 mg/ml BSA. The cells were adjusted to a concentration of 3-4×10^4 /ml and 100 μls of this cell suspension was added to the wells. The assay mixture was then incubated at 37° C for 120 minutes. At the end of the incubation, the wells were washed with warm PBS containing 10 mM Ca^++, and the adherent population was solubilized with 0.5N NaOH containing 1% sodium dodecyl sulfate. The solubilized cells were then quantitated using a liquid scintillation counter. Each determination was done in triplicate.
Rat C6 glioma cell line was purchased from the American Type Culture Collection (identification number CCL 107). Culturing techniques were as described in part A. Labelling and harvesting techniques were as described in Example 5. Cell adhesion assay was performed as described in Example 5.

Assay [1] relates to murine melanoma cells, K-1735-M4. As to the kind of experiment: Cell adhesion assay for M4 cell line (Example 6A). The conditions noted are these: FIG. 10. Here is the method: as §1
Highly metastatic murine melanoma cells, K-1735-M4 were originally provided by Dr. I. J. Fidler of Anderson Hospital, University of Texas Health Sciences Center, Houston, Tex. When the cells were received, a large number of early passage cells were propagated and frozen in liquid nitrogen. […]

For assay [2], the system named is Bovine aortic endothelial cells. As to the kind of experiment: Aortic endothelial cell adhesion assay (Example 5). Particulars: 0.1; 1.0; and 10.0 μg/per well adsorbed, 120 minutes at 37° C, FIG. 9. Here is the method:
Bovine aortic endothelial cells were isolated according to the following protocol. Aortas were obtained from a local slaughterhouse, washed in cold phosphate buffered saline (PBS) (136 mM NaCl, 2.6 mM KCl, 15.2 mM Na2HP04, pH 7.2) and processed within 2 hours. Crude collagenase (CLS III, 125-145 units per mg dry weight, Cooper Biomedical) was used at 2 mg/ml in Dulbecco's modified Eagle's medium (DMEM) (GIBCO). The vessel was clamped at the distal end, filled with the collagenase-PBS solution and digestion was carried out for 10 minutes. The lumenal contents were harvested, followed by the addition of fresh collagenase for two additional 10-minute periods. The enzyme-cell suspensions were added to an equal volume of DMEM containing 10% fetal bovine serum (FBS) to inhibit the enzyme and spun in a centrifuge at 400×g for 10 minutes. The resulting cell pellet was resuspended in DMEM containing 10% FBS, 100 units/ml of penicillin G, 100 μg/ml of streptomycin and 100 μg/ml of crude fibroblast growth factor. Cells are cultured in 75 cm^2 flasks in a humidified 5% CO2 atmosphere at 37° C. Cultures were fed twice a week with the same medium and cells were used in assays when approximately 75% confluent. Cells were identified as endothelial in nature by characteristic cobblestone morphology, contact inhibition of growth upon reaching confluency, and positive immunofluorescent staining for factor VIII:RAg (Miles Laboratories) [S. Schwartz, In Vitro, 14, 966 (1978)]. Only endothelial cells, megakaryocytes and platelets are known to contain the factor VIII:RAg. This method routinely gives a high yield of endothelial cells with little contamination (less than 5%) by smooth muscle cells, pericytes or fibroblasts as judged by phase contrast microscopy as well as by immunostaining.
as §1, with “At the end of the incubation, the wells were washed with warm PBS containing 10 mM Ca^++, and the adherent population was solubilized with 0.5N NaOH containing 1% sodium dodecyl sulfate.” left out, “Each determination was done in triplicate.” left out

Peptide text beside a SMILES is read from it.

As to `CSCC[C@H](NC(=O)CNC(=O)[C@H](CCCCN)NC(=O)[C@H](CCC(=O)O)NC(=O)[C@H](Cc1ccccc1)NC(=O)[C@H](CS)NC(=O)[C@@H](NC(=O)[C@@H]1CCCN1C(=O)[C@H](CCCNC(=N)N)NC(=O)[C@@H]1CCCN1C(=O)[C@H](CC(C)C)NC(=O)[C@@H](NC(=O)[C@@H](NC(=O)[C@H](Cc1ccc(O)cc1)NC(=O)[C@@H](N)CCCNC(=N)N)C(C)C)C(C)C)C(C)C)C(=O)N[C@@H](CC(N)=O)C(=O)N[C@@H](Cc1ccc(O)cc1)C(=O)N[C@H](C(=O)N[C@H](C(=O)N[C@@H](CCCNC(=N)N)C(=O)O)C(C)C)[C@@H](C)O` [Peptide F9] (H-RYVVLPRPVCFEKGMNYTVR-OH), the cell adhesion entry (in the assay with Rat C6 glioma cell line; in assay [1]) was “potent promoters of cell adhesion” each time. The endothelial cell adhesion entry in assay [2] is “potent promoters of endothelial cell adhesion”.
Take `CC[C@H](C)[C@H](NC(=O)[C@H](CCCCN)NC(=O)[C@H](CC(C)C)NC(=O)[C@H](C)NC(=O)[C@H](CCCCN)NC(=O)[C@H](C)NC(=O)[C@H](CCCCN)NC(=O)[C@H](CCC(=O)O)NC(=O)[C@H](CC(C)C)NC(=O)[C@H](Cc1ccccc1)NC(=O)[C@H](CCCCN)NC(=O)[C@H](Cc1c[nH]cn1)NC(=O)[C@@H](NC(=O)[C@H](CCCNC(=N)N)NC(=O)[C@H](CC(N)=O)NC(=O)[C@@H](NC(=O)[C@H](CC(C)C)NC(=O)[C@@H](N)CCC(=O)O)[C@@H](C)O)[C@@H](C)O)C(=O)O` [Peptide F13, ELTNRTHKFLEKAKALKI] (H-ELTNRTHKFLEKAKALKI-OH): the cell adhesion result (with Rat C6 glioma cell line; in assay [1]) was “potent promoters of cell adhesion” throughout. For the same molecule, the endothelial cell adhesion entry in assay [2] is listed as “potent promoters of endothelial cell adhesion”.
